Measured values reported in patent US6339103B1, “Fungicides” (Aventis CropScience UK Limited, priority 1998, dated 2002).

Test system: Plasmopara viticola
Assay: Vine downy mildew disease control, foliar spray on vines
Assay type: in vivo
Details: aqueous solution sprayed onto vines to run off, then inoculated with 100,000 spores per ml, compared with untreated plants
Description: Aqueous solutions of the compound of Example 1 were sprayed at various concentrations onto vines to run off using a hand-sprayer. Plants were then inoculated by hand spraying with a spore suspension of 100,000 spores per ml of Plasmopara viticola. For the purposes of comparison the vines were sprayed also with the commercially available propamocarb hydrochloride.
Plants were assessed for degree of disease control compared with untreated plants.

| Structure (SMILES) | % Control (rate 400 ppm) [%] | % Control (rate 800 ppm) [%] |
| --- | --- | --- |
| CCCOC(=O)NCCCN(C)C.CCO[PH](=O)O [Compound of invention, dimethyl-[3-(propoxycarbonylamino)propyl]ammonium O-ethylphosphonate] | 27.6 | 81.5 |
| CCCOC(=O)NCCCN(C)C.Cl [propamocarb hydrochloride, propyl 3-(dimethylamino)propylcarbamate hydrochloride] | 4.2 | 14.6 |
